# In patent US11453640B2, “Small molecules for disrupting the super elongation complex and inhibiting transcription elongation for cancer therapy” (NORTHWESTERN UNIVERSITY, priority 2018, dated 2022):
# pKi: −log10 of the molar value.
# Assays:
# [1] = biological target: T1, AFF4-CCNT1 interaction (GST-CCNT1 AA 1-300 and biotin-AFF4 peptide AA 32-67) (Homo sapiens, UniProt O60563); assay: AlphaLISA assay of the AFF4-CCNT1 interaction (Alpha Screen); assay type: binding
# T1 construct: Recombinant GST-CCNT1 (1-300), which was purified by Glutathione Superflow Agarose from Rosetta cells; VCPBIO (peptide synthesis) Addgene P#432; host or cells: Rosetta cells
# T1 sequence (O60563 1-300): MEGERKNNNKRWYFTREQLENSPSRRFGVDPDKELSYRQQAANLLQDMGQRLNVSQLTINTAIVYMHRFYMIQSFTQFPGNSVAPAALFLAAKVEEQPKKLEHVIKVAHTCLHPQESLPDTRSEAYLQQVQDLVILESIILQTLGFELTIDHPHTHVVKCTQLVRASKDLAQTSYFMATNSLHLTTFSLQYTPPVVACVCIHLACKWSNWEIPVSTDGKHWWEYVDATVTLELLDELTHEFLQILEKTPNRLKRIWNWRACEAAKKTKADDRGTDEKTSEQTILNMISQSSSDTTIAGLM
# Source text: FIG. 1. Peptidomimetic identification of disruptors of the AFF4-CCNT1 interaction within the Super Elongation Complex. (A) Schematic for the identification of small molecule inhibitors of the AFF4-CCNT1 interaction using in silico high-throughput screening. Compounds from the ZINC database were docked with the AFF4-CCNT1 structure (4IMY) using a three-tier glide-docking algorithm, which led to 40 candidates. Residues forming the deep binding pocket of CCNT1 are labeled orange and residues of the AFF4 peptide are labeled red. (B) Validation screening identified KL-1 as a potential SEC disruptor using AlphaLISA screening. GST-CCNT1 (AA 1-300) and biotin-labeled AFF4 peptide (AA 32-67) were used to measure the AFF4-CCNT1 interaction with the AlphaLISA assay. (C) Similarity search for KL-1-like molecules identified KL-2. The peptidomimetic potential of KL-1 and KL-2 can be seen by overlaying them with the AFF4 peptide LFAEP structure. (D) Dose-dependent inhibition of KL-1 and KL-2 on AFF4-CCNT1 interaction. The Ki constants of both compounds were measured with the AlphaLISA assays. (E) Treatment of HEK293T cells with KL-1 and KL-2 results in reduced protein levels of SEC components AFF1 and AFF4 but not CDK9 or CCNT1. HEK293T cells were treated with 20 μM of SEC inhibitors KL-1 or KL-2 for 6 hr. 5 μl, 10 and 20 μl cell lysates were loaded and the protein levels of AFF1, AFF4, CCNT1, CDK9 and Tubulin (load control) were determined by western blotting.
# FIG. 8, related to FIG. 1. Peptidomimetic identification of disruptors of the AFF4-CCNT1 interaction within the Super Elongation Complex. (A) Schematic of AlphaLISA assay of the AFF4-CCNT1 interaction. Anti-GST AlphaLISA acceptor beads and AlphaScreen streptavidin donor beads (Perkin Elmer) were used to detect the interaction of GST-CCNT1 (AA1-300) and biotin-AFF4 (AA32-67). (B-C) Optimization of the AlphaLISA assay with various biotin-AFF4 peptide and GST-CCNT1 concentrations. No CCNT1 (B) and mutant AFF4 (C) were used as negative controls. Data are represented as Mean+/−SD. (D) Scheme for chemical synthesis of SEC inhibitors KL-1 and KL-2. Reagents and conditions: a. LDA, THF, −78° C., 15 min., then diethyl oxalate, −78° C. to room temperature. b. NaOH, THF/H2O, room temperature, 15 min. c. EEDQ, 5-chloro-2-methylaniline, THF, room temperature, 24 hr. […] 293T cells were treated with 20 μM of KL-1 or KL-2 for 6 hr, and the protein levels of BRD2, BRD4, Pol II (RPB1), SPT5, MED26, MYC, HSP90 (load control) and Tubulin (load control) were measured by western blotting. (F) Treatment of HCT-116 cells with KL-1 and KL-2 reduced protein levels of SEC components AFF1 and AFF4 but not CDK9 or CCNT1. HCT-116 cells were treated with 20 μM of KL-1 or KL-2 for 6 hr, and the protein levels of AFF1, AFF4, CCNT1, CDK9 and Tubulin (load control) were determined by western blotting. (G-H) Treating cells with KL-1 and KL-2 results in reduced levels of AFF 1 and AFF4. FLAG-AFF1 (G) and FLAG-AFF4 (H) were expressed under the Tet-inducible promoter in HEK293T cells. Cells were treated with 20 μM of the indicated inhibitors for 6 hr for western blotting. […] RNA-seq was performed in HEK293T cells treated for 12 hr with 20 μM of the indicated inhibitors. The log2CPM (counts per million) of the SEC subunits were calculated with HTseq. KL-1 and KL-2 had no significant effects on CCNT1, CDK9 and AFF1 expression, but modest increases in the mRNA levels of AFF4 and ELL2 were observed (n=3). Unpaired two-way ANOVA was used for the statistical testes. **,p<0.05, ***,p<0.001.
# To test if candidate compounds can disrupt the AFF4-CCNT1 interaction in vitro, we established and optimized a bead-based AlphaLISA assay with recombinant CCNT1 (1-300) protein and synthesized Biotin-AFF4 peptides (AA 32-67) (FIGS. 8A, 8B and 8C).
# AlphaLISA Assay. The interaction of CCNT1-AFF4 was measured by Perkin Elmer's bead-based AlphaLISA assays. […]
# MDA231-LM2 cells = assay: Annexin V apoptosis in MDA231-LM2 cells; assay type: cell-based; settings: 24 hr
# Procedure: FIG. 14, related to FIG. 7. SEC disruptors delay tumor progression and improve survival of MDA231-LM2 tumor mice. (A) KL-1 and KL-2 inhibit the colony formation of MDA231-LM2 cells in vitro. 5×10^3 MDA231-LM2 cells were seeded in 6-well plates and treated with KL-1 or KL-2 at the indicated doses for 5 days. Crystal violet staining was performed to stain the colonies. (B) KL-1 and KL-2 induce apoptosis in MDA231-LM2 cells. Bar graph depiction of Annexin V positive MDA231-LM2 cells after 24 hr of KL-1 and KL-2 treatments at the indicated concentrations. Data are represented as Mean+/−SD. […] Each individual line indicates the weights of each mouse during toxicity test.
compound,measurement,setting,value
"COc1cccc(C(=O)CC(=O)C(=O)Nc2cc(Cl)ccc2C)c1 [KL-1, N-(5-chloro-2-methylphenyl)-4-oxo-4-(3-methoxyphenyl)-2-oxobutanamide]",pKi,"[1]; AlphaLISA, IC50 converted to Ki with the Cheng and Prusoff equation, read-out: Ki, inhibition of the AFF4-CCNT1 interaction",5.46
same,disruption of the AFF4-CCNT1 interaction,[1]; tested at 20 μM,could inhibit the interaction of AFF4-CCNT1
same,apoptosis (Annexin V staining),MDA231-LM2 cells,increase apoptosis
